Source: PubChem BioAssay AID2060606 (Molecular Pharmacology Branch, DTP, NCI, 2025)
Several values for one entry are separate records, joined by “and”; a condition that tells them apart may be missing. Equal entries are not always repeated.

Test system: 922993-354-T-J3-PDC complex spheroids, viability, % test/control
Experiment: Anticancer human tumor 922993-354-T-J3-PDC patient-derived endometrial carcinoma cell line growth inhibition [CLK]
Conditions: for viability, T/C: stronger effect = lower value
How it was run: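 Patient-derived tumor cells grown as complex spheroids with HUVEC endothelial cells and mesenchymal stem cells, treated with drug combinations. Concentrations descend in half-log steps from near clinical Cmax, or from 10 microM if Cmax unknown.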
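Note: spheroids exposed to the agents for 7 days before readout.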

`CC(C)CC(NC(=O)C(Cc1ccccc1)NC(=O)c1cnccn1)B(O)O` (centres undefined) + CNC(=O)c1ccc(Nc2nc(OC3CCCC3)c3c(-c4ccc5nc(C)oc5c4)c[nH]c3n2)c(OC)c1 showed an IC50 (curve of first compound, second compound 0.0316 µM) of 10.3 nM, an IC50 (curve of first compound, second compound 0.1 µM) of 11.1 nM and an IC50 (curve of first compound, second compound 0.316 µM) of 5.27 nM. The IC50 (curve of first compound, second compound 1 µM) was under 0.949 nM, the IC50 (curve of first compound, second compound 3.16 µM) was under 0.949 nM and the IC50 (curve of first compound, second compound 10 µM) was under 0.949 nM. The viability, T/C (second compound 0.0316 µM, first compound 0.000949 µM) was 106%, the viability, T/C (second compound 0.0316 µM, first compound 0.003 µM) was 91.4% and the viability, T/C (second compound 0.0316 µM, first compound 0.00949 µM) was 53%. It also gave a viability, T/C (second compound 0.0316 µM, first compound 0.03 µM) of 15%, a viability, T/C (second compound 0.0316 µM, first compound 0.0949 µM) of 1.67% and a viability, T/C (second compound 0.0316 µM, first compound 0.3 µM) of 2.25%. The viability, T/C (second compound 0.1 µM, first compound 0.000949 µM) was 79.8%, the viability, T/C (second compound 0.1 µM, first compound 0.003 µM) was 65.5% and the viability, T/C (second compound 0.1 µM, first compound 0.00949 µM) was 57.2%. The viability, T/C (second compound 0.1 µM, first compound 0.03 µM) was 10.3%, the viability, T/C (second compound 0.1 µM, first compound 0.0949 µM) was 2.17% and the viability, T/C (second compound 0.1 µM, first compound 0.3 µM) was 0.85%. The viability, T/C (second compound 0.316 µM, first compound 0.000949 µM) was 80.2%, the viability, T/C (second compound 0.316 µM, first compound 0.003 µM) was 64.4% and the viability, T/C (second compound 0.316 µM, first compound 0.00949 µM) was 35.2%. It also gave a viability, T/C (second compound 0.316 µM, first compound 0.03 µM) of 6.18%, a viability, T/C (second compound 0.316 µM, first compound 0.0949 µM) of 2.17% and a viability, T/C (second compound 0.316 µM, first compound 0.3 µM) of 0.48%. It also gave a viability, T/C (second compound 1 µM, first compound 0.000949 µM) of 36.8%, a viability, T/C (second compound 1 µM, first compound 0.003 µM) of 32.6% and a viability, T/C (second compound 1 µM, first compound 0.00949 µM) of 14%. The viability, T/C (second compound 1 µM, first compound 0.03 µM) was 3.9%, the viability, T/C (second compound 1 µM, first compound 0.0949 µM) was 0.77% and the viability, T/C (second compound 1 µM, first compound 0.3 µM) was 1.23%. The viability, T/C (second compound 3.16 µM, first compound 0.000949 µM) was 30.9%, the viability, T/C (second compound 3.16 µM, first compound 0.003 µM) was 19.4% and the viability, T/C (second compound 3.16 µM, first compound 0.00949 µM) was 2.49%. For the same molecule, the viability, T/C (second compound 3.16 µM, first compound 0.03 µM) was 2.35%, the viability, T/C (second compound 3.16 µM, first compound 0.0949 µM) was 0.79% and the viability, T/C (second compound 3.16 µM, first compound 0.3 µM) was 0.78%. It also gave a viability, T/C (second compound 10 µM, first compound 0.000949 µM) of 25%, a viability, T/C (second compound 10 µM, first compound 0.003 µM) of 15% and a viability, T/C (second compound 10 µM, first compound 0.00949 µM) of 3.13%. The viability, T/C (second compound 10 µM, first compound 0.03 µM) was 3.29%, the viability, T/C (second compound 10 µM, first compound 0.0949 µM) was 0.81% and the viability, T/C (second compound 10 µM, first compound 0.3 µM) was 0.61%.
For `CC(C)CC(NC(=O)C(Cc1ccccc1)NC(=O)c1cnccn1)B(O)O` (centres undefined), the viability, T/C (compound 0.000949 µM) was 91.1% and 99.8%, the viability, T/C (compound 0.003 µM) was 85.1% and 72.4% and the viability, T/C (compound 0.00949 µM) was 30.7% and 48.4%. For the same molecule, the viability, T/C (compound 0.03 µM) was 2.06% and 11.1%, the viability, T/C (compound 0.0949 µM) was 0.41% and 2.23% and the viability, T/C (compound 0.3 µM) was 0.17% and 0.49%. For the same molecule, the IC50 (curve of compound) was 6.31 nM and 7.44 nM.
